The values below come from ChEMBL document CHEMBL6134869, “Silaproline-bearing nirmatrelvir derivatives are potent inhibitors of the SARS-CoV-2 main protease highlighting the value of silicon-derivatives in structure-activity-relationship studies” (Eur J Med Chem, 2025).

Each structure is given as a SMILES string.

As a reminder, the IC50 is the concentration that inhibits the measured activity by half. For orientation: EC50 means the concentration needed to bring the measured effect to its halfway point.

Data set [1] concerns Severe acute respiratory syndrome coronavirus 2. As to the kind of experiment: Inhibition of recombinant SARS-CoV-2 main protease assessed as Kinact/Ki using ALNDFSNSGSDVLYQPPQTSITSAVLQSGFRKMAFPS-NH2 as substrate preincubated for 15 mins followed by substrate addition and measured after 30 mins by Solid phase extraction coupled with MS analysis. To be noted: time 45.0 min.
Data set [2] in a line: Inhibition of recombinant SARS-CoV-2 main protease using ALNDFSNSGSDVLYQPPQTSITSAVLQSGFRKMAFPS-NH2 as substrate preincubated for 15 mins followed by substrate addition and measured after 30 mins by Solid phase extraction coupled with MS analysis. Set-up: species or system Severe acute respiratory syndrome coronavirus 2.
In the next data set the test system is SARS-CoV-2. As to the kind of experiment: Antiviral activity against SARS-CoV-2 MT007544.1 infected in African green monkey Vero E6 cells pre infected with virus for 1 hrs followed by incubation with cells for 2 hrs and measured after 20 hrs by ELISPOT reader based analysis. The data set is classed as functional, organism-based. To be noted: Severe acute respiratory syndrome coronavirus 2, MT007544.1, Vero C1008.

A further data set deals with Vero C1008. The experiment in a line: Cytotoxicity against African green monkey Vero E6 cells. The data set is classed as toxicity, cell-based. To be noted: chlorocebus sabaeus.

For `C#C[C@H](C[C@@H]1CCNC1=O)NC(=O)[C@@H]1[C@@H]2[C@H](CN1C(=O)[C@@H](NC(=O)C(F)(F)F)C(C)(C)C)C2(C)C`, the K in data set [1] is 597 M⁻¹ s⁻¹.
Take `COC(=O)N[C@H](C(=O)N1C[Si](C)(C)C[C@H]1C(=O)N[C@H](C#N)C[C@@H]1CCNC1=O)C(C)(C)C`: in data set [2], the half-maximal inhibitory concentration (IC50) was determined as 59 nM. The same molecule showed an EC50 with SARS-CoV-2 above 50000 nM. In the data set with Vero C1008, the Activity entry is on record as “Non-toxic”.
Take `COC(=O)N[C@H](C(=O)N1C[Si](C)(C)C[C@H]1C(=O)N[C@H](C#Cc1ccccc1)C[C@@H]1CCNC1=O)C(C)(C)C`: the IC50 in data set [2] was above 50000 nM. Moreover, in the data set with SARS-CoV-2, the EC50 was above 50000 nM.
Turning to `COC(=O)N[C@H](C(=O)N1CC(C)(C)C[C@H]1C(=O)N[C@H](C#N)C[C@@H]1CCNC1=O)C(C)(C)C`, the IC50 in data set [2] came out at 30 nM. In addition, in the data set on SARS-CoV-2, the EC50 is above 50000 nM. Besides, the Activity entry in the data set with Vero C1008 is on record as “Non-toxic”.
Turning to `CC(C)(C)[C@H](NC(=O)C(F)(F)F)C(=O)N1C[Si](C)(C)C[C@H]1C(=O)N[C@H](C#N)C[C@@H]1CCNC1=O`, the IC50 in data set [2] was 41 nM. In the data set with SARS-CoV-2, this molecule yielded an EC50 of 24000 nM. Also, the Activity entry with Vero C1008 is “Non-toxic”.
`C#C[C@H](C[C@@H]1CCNC1=O)NC(=O)[C@@H]1CC(C)(C)CN1C(=O)[C@@H](NC(=O)OC)C(C)(C)C`: the IC50 in data set [2] worked out at 320 nM. Further, in the data set on SARS-CoV-2, the EC50 is above 50000 nM.
As for `C#C[C@H](C[C@@H]1CCNC1=O)NC(=O)[C@@H]1C[Si](C)(C)CN1C(=O)[C@@H](NC(=O)C(F)(F)F)C(C)(C)C`, in data set [2], the IC50 amounted to 280 nM. This molecule registered an EC50 with SARS-CoV-2 of 46000 nM.
Regarding `C#C[C@H](C[C@@H]1CCNC1=O)NC(=O)[C@@H]1C[Si](C)(C)CN1C(=O)[C@@H](NC(=O)OC)C(C)(C)C`, the IC50 in data set [2] was 340 nM. Moreover, the EC50 with SARS-CoV-2 is above 50000 nM. For the same molecule, in data set [1], the K was determined as 3640 M⁻¹ s⁻¹.
Turning to `CC(C)(C)[C@H](NC(=O)C(F)(F)F)C(=O)N1C[C@H]2[C@@H]([C@H]1C(=O)N[C@H](C#N)C[C@@H]1CCNC1=O)C2(C)C` [NIRMATRELVIR], the Activity result in the data set on Vero C1008 is “Non-toxic”.
With `COC(=O)N[C@H](C(=O)N1C[Si](C)(C)C[C@H]1C(=O)N[C@H](C#N)C[C@@H]1CCNC1=O)C1CCCCC1`, in data set [2], the IC50 is 113 nM.
